From patent US11214803B2, “Modulators of YAP1 expression” (Ionis Pharmaceuticals, Inc., priority 2019, dated 2022)
Strand notation (5' to 3'): a small letter for the sugar, then the base; units joined by * are phosphorothioate-linked, units joined directly phosphodiester-linked; [ ] holds rarer units or linkages, { } end groups; capitals alone tell only the bases. e = 2'-O-(2-methoxyethyl) (MOE); k = constrained ethyl (cEt); [5mC] = 5-methylcytosine; d = 2'-deoxy (DNA); m = 2'-O-methyl

System: Yap1 mRNA
Assay: Antisense inhibition of human Yap1 in SNU-449 cells by modified oligonucleotides, single dose (Example 5, RTS36584)
Assay type: cell-based
Outline: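 Plate SNU-449 cells at 10,000 per well; add 2,000 nM modified oligonucleotide without transfection reagent; after ~48 h isolate RNA, run qRT-PCR with RTS36584, normalise to RIBOGREEN and report % UTC.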

[1] = Yap1 mRNA, percent of untreated control, modified oligonucleotides targeting SEQ ID NO: 1 and 2, Table 47
[2] = Table 50, Yap1 mRNA remaining as percent of untreated control (UT), SNU-449 cells, single dose
[3] = Table 45, Yap1 mRNA as percent of untreated control, SNU-449 cells, single dose
[4] = Table 39, SNU-449 cells, 10,000 cells per well, free uptake, 2,000 nM oligonucleotide, approx. 48 hours, RTS36584, normalized to RIBOGREEN, Yap1 mRNA relative to untreated control
[5] = Table 51, Yap1 mRNA remaining as percent of untreated control (UT), SNU-449 cells, single dose
[6] = Table 52, Yap1 mRNA, modified oligonucleotides targeting SEQ ID NO: 1 and 2
[7] = Table 44 experiment, SNU-449 cells, 10,000 cells per well, free uptake, 2,000 nM, approximately 48 hours, RTS36584, Yap1 mRNA normalized to RIBOGREEN, relative to untreated control cells
[8] = Table 46, Yap1 mRNA as percent of untreated control, SNU-449 cells, single dose
[9] = Table 43 experiment, SNU-449 cells, 10,000 cells per well, free uptake, 2,000 nM, approximately 48 hours, RTS36584, Yap1 mRNA normalized to RIBOGREEN, relative to untreated control cells
[10] = Table 40 (separate experiment), SNU-449 cells, 10,000 cells per well, free uptake, 2,000 nM oligonucleotide, approx. 48 hours, RTS36584, normalized to RIBOGREEN, Yap1 mRNA relative to untreated control
[11] = Table 49, Yap1 mRNA level relative to untreated control, modified oligonucleotides targeting SEQ ID NO.: 1 and 2
[12] = Table 41, SNU-449 cells, 10,000 cells per well, free uptake, 2,000 nM modified oligonucleotide, approximately 48 hours, RTS36584, normalized to RIBOGREEN, Yap1 mRNA relative to untreated control cells

With “1197192 (antisense kA*kT*kA*dG*dT*dG*d[5mC]*dT*dT*dT*dG*dG*dA*kA*kG*kA) [Compound 1197192]” the “YAP1 (% UT)” value [1] was 39 % UT.

With “1197282 (kA*kA*kA*dT*mU*dG*dT*d[5mC]*dT*d[5mC]*dA*dT*dG*k[5mC]*k[5mC]*kT) [Compound 1197282]” the “YAP1 (% UT)” value [2] was 40 % UT.

“1198954 (kT*kG*dT*dA*dA*dT*dA*dT*dT*dG*d[5mC]*kA*dA*kT*d[5mC]*kT; antisense) [Compound 1198954]” was tested, and the “YAP1 (% UTC)” value [3] was 94 % UTC.

For “1198598 (antisense kA*kA*k[5mC]*dT*d[5mC]*dT*dT*dA*dT*dA*dT*dG*kG*kT*kT*eT) [Compound 1198598]”, the “YAP1 (% UT)” value [2] was 76 % UT.

“1198414 (kA*dT*dT*dT*dA*dG*dG*dA*dT*dG*d[5mC]*kA*eT*kG*eG*kT) [Compound 1198414]” was tested, and the “YAP1 (% UTC)” value [4] was 20 % UTC.

For “1197238 (antisense kA*kG*kG*dT*mA*dT*dA*dA*d[5mC]*dT*dG*dG*dG*k[5mC]*kA*kA) [Compound 1197238]”, the “YAP1 (% UT)” value [5] was 43 % UT.

In the case of “1200861 (kT*kT*kA*dA*dA*mG*dT*dG*dT*dA*dT*dG*dT*k[5mC]*kA*kG; antisense) [Compound 1200861]”, the “YAP1 (% UT)” value [6] is reported as 10 % UT.

For “1198416 (kA*dG*dA*dT*dT*dT*dA*dG*dG*dA*dT*kG*e[5mC]*kA*eT*kG; antisense) [Compound 1198416]”, the “YAP1 (% UTC)” value [4] was 29 % UTC.

For “1198533 (kT*kA*dA*dG*dG*dT*dT*dT*d[5mC]*d[5mC]*d[5mC]*eA*kG*eA*kT*eT; antisense) [Compound 1198533]”, the “YAP1 (% UTC)” value [7] was 35 % UTC.

“1200788 (kG*kA*kA*dA*dT*mU*dG*dT*d[5mC]*dT*d[5mC]*dA*dT*kG*k[5mC]*k[5mC]; antisense) [Compound 1200788]” was tested, and the “YAP1 (% UT)” value [6] was 19 % UT.

In the case of “1200800 (T_{ks}A_{ks}T_{ks}A_{ds}T_{ds}U_{ys}A_{ds}G_{ds}A_{ds}G_{ds}T_{ds}A_{ds}T_{ds}G_{ks}T_{ks}G_{k}; antisense; as printed in the source, key not given here) [Compound 1200800]”, the “YAP1 (% UT)” value [5] is reported as 61 % UT.

“1197272 (^{m}C_{ks}T_{ks}T_{ks}T_{ds}A_{ys}A_{ds}A_{ds}G_{ds}T_{ds}G_{ds}T_{ds}A_{ds}T_{ds}G_{ks}T_{ks}^{m}C_{k}; as printed in the source, key not given here) [Compound 1197272]” was tested, and the “YAP1 (% UT)” value [5] was 32 % UT.

In the case of “1198433 (kG*dT*dA*dA*dT*dA*dT*dT*dG*d[5mC]*dA*kA*eT*k[5mC]*eT*kG) [Compound 1198433]”, the “YAP1 (% UTC)” value [4] is reported as 36 % UTC.

For “1095425 (antisense kT*kG*dA*dG*dG*dT*dA*dT*dA*dA*d[5mC]*kT*eG*kG*eG*k[5mC]) [Compound 1095425]”, the “YAP1 (% UT)” value [8] was 57 % UT.

“1198816 (antisense kT*kT*dA*dG*dA*dG*dT*dA*dT*dG*dT*kG*eG*k[5mC]*eA*kA) [Compound 1198816]” was tested, and the “YAP1 (% UT)” value [8] was 27 % UT.

With “1198925 (k[5mC]*kT*dT*dT*dG*dG*dA*dA*dG*dA*dT*k[5mC]*dT*kG*dA*kA; antisense) [Compound 1198925]” the “YAP1 (% UTC)” value [3] was 52 % UTC.

In the case of “1198247 (kA*kT*dT*d[5mC]*dA*dG*dA*dT*dT*dT*dA*eG*eG*eA*kT*kG; antisense) [Compound 1198247]”, the “YAP1 (% UTC)” value [9] is reported as 99 % UTC.

With “1198500 (kA*kT*dT*dT*dA*dG*dG*dA*dT*dG*d[5mC]*eA*kT*eG*kG*eT; antisense) [Compound 1198500]” the “YAP1 (% UTC)” value [7] was 17 % UTC.

For “1198728 (kT*eA*kT*dT*dA*dG*dA*dG*dT*dA*dT*dG*eT*eG*kG*k[5mC]; antisense) [Compound 1198728]”, the “YAP1 (% UTC)” value [10] was 17 % UTC.

“1198715 (kA*eT*kT*dG*dT*d[5mC]*dT*d[5mC]*dA*dT*dG*d[5mC]*e[5mC]*eT*kT*kA; antisense) [Compound 1198715]” was tested, and the “YAP1 (% UTC)” value [10] was 33 % UTC.

With “1198556 (antisense kT*kA*kT*dT*dA*dG*dA*dG*dT*dA*dT*dG*kT*kG*kG*e[5mC]) [Compound 1198556]” the “YAP1 (% UT)” value [11] was 25 % UT.

With “1198447 (kT*dA*dA*dG*dG*dT*dT*dT*d[5mC]*d[5mC]*d[5mC]*kA*eG*kA*eT*kT; antisense) [Compound 1198447]” the “YAP1 (% UTC)” value [4] was 63 % UTC.

“1198432 (kT*dA*dA*dT*dA*dT*dT*dG*d[5mC]*dA*dA*kT*e[5mC]*kT*eG*kT; antisense) [Compound 1198432]” was tested, and the “YAP1 (% UTC)” value [4] was 70 % UTC.

In the case of “1197232 (antisense kA*kT*kA*dT*mG*dG*dA*dA*dA*dT*dT*dG*dT*k[5mC]*kT*k[5mC]) [Compound 1197232]”, the “YAP1 (% UT)” value [2] is reported as 55 % UT.

“1095565 (antisense kT*kG*kA*dG*dG*dT*dA*dT*dA*dA*d[5mC]*dT*kG*eG*kG*e[5mC]) [Compound 1095565]” was tested, and the “YAP1 (% UT)” value [11] was 25 % UT.

With “1198655 (k[5mC]*kA*d[5mC]*dT*dT*dT*dT*dA*d[5mC]*dA*dT*dT*kA*eG*kG*eA; antisense) [Compound 1198655]” the “YAP1 (% UTC)” value [12] was 30 % UTC.

With “1095594 (antisense k[5mC]*kT*dG*dA*dG*dG*dT*dA*dT*dA*dA*e[5mC]*eT*eG*kG*kG) [Compound 1095594]” the “YAP1 (% UTC)” value [9] was 27 % UTC.

For “1198548 (antisense kT*kG*kG*dA*dA*dA*dT*dT*dG*dT*d[5mC]*dT*k[5mC]*kA*kT*eG) [Compound 1198548]”, the “YAP1 (% UT)” value [11] was 26 % UT.

“1198702 (kT*kT*dT*dA*dA*dA*dG*dT*dG*dT*dA*dT*kG*eT*k[5mC]*eA; antisense) [Compound 1198702]” was tested, and the “YAP1 (% UTC)” value (Table 42 (separate experiment), SNU-449 cells, 10,000 cells per well, free uptake, 2,000 nM modified oligonucleotide, approximately 48 hours, RTS36584, normalized to RIBOGREEN, Yap1 mRNA relative to untreated control cells) was 74 % UTC.

“1198364 (kT*kA*kA*dG*dT*dA*dA*dG*dG*dT*dT*dT*k[5mC]*e[5mC]*k[5mC]*eA; antisense) [Compound 1198364]” was tested, and the “YAP1 (% UT)” value [11] was 29 % UT.

With “1198374 (kG*dA*dA*dA*dT*dT*dG*dT*d[5mC]*dT*d[5mC]*kA*eT*kG*e[5mC]*k[5mC]; antisense) [Compound 1198374]” the “YAP1 (% UTC)” value [4] was 24 % UTC.

“1198868 (kT*kG*dT*dA*dA*dT*dA*dT*dT*dG*d[5mC]*kA*eA*kT*e[5mC]*kT; antisense) [Compound 1198868]” was tested, and the “YAP1 (% UT)” value [8] was 49 % UT.

“1197245 (antisense kT*kT*kT*dT*mA*d[5mC]*dA*dT*dT*dA*dG*dG*dA*kA*k[5mC]*kA) [Compound 1197245]” was tested, and the “YAP1 (% UT)” value [2] was 60 % UT.

For “1200843 (kA*k[5mC]*kT*d[5mC]*dT*mU*dA*dT*dA*dT*dG*dG*dT*kT*kT*kT; antisense) [Compound 1200843]”, the “YAP1 (% UT)” value [6] was 46 % UT.

With “1198902 (kT*kT*dA*dG*dA*dG*dT*dA*dT*dG*dT*kG*dG*k[5mC]*dA*kA; antisense) [Compound 1198902]” the “YAP1 (% UTC)” value [7] was 13 % UTC.

For “1197306 (k[5mC]*kA*kA*d[5mC]*mU*d[5mC]*dT*dT*dA*dT*dA*dT*dG*kG*kT*kT; antisense) [Compound 1197306]”, the “YAP1 (% UT)” value [5] was 77 % UT.

In the case of “1095567 (antisense k[5mC]*kA*k[5mC]*dT*dG*dA*dG*dG*dT*dA*dT*dA*kA*e[5mC]*kT*eG) [Compound 1095567]”, the “YAP1 (% UT)” value [11] is reported as 92 % UT.

With “1198319 (k[5mC]*kT*kT*dT*dG*dG*dA*dA*dG*dA*dT*d[5mC]*kT*eG*kA*eA; antisense) [Compound 1198319]” the “YAP1 (% UT)” value (Table 48, Yap1 mRNA level relative to untreated control, modified oligonucleotides targeting SEQ ID NO.: 1 and 2) was 47 % UT.

For “1198877 (kT*kT*dA*dA*dA*dG*dT*dG*dT*dA*dT*kG*eT*k[5mC]*eA*kG; antisense) [Compound 1198877]”, the “YAP1 (% UT)” value [1] was 11 % UT.

In the case of “1198637 (kA*kG*dT*dA*dT*dG*dT*dG*dG*d[5mC]*dA*dA*kT*eA*kA*eT; antisense) [Compound 1198637]”, the “YAP1 (% UTC)” value [12] is reported as 64 % UTC.

For “1197277 (kA*k[5mC]*kT*dA*mA*dG*dT*dA*dA*dG*dG*dT*dT*kT*k[5mC]*k[5mC]) [Compound 1197277]”, the “YAP1 (% UT)” value [5] was 23 % UT.
